Key:
[1] = system: naive CD4+ T cells cultured with allogeneic monocyte-derived dendritic cells; assay: Mixed leukocyte reaction assay (FIG. 2); assay type: cell-based, human; details: 300 µM ATP; for Rescue of proliferation of naive CD4 T cells in MLR / IFNγ production in MLR: Compound 2 50 nM; for Rescue of proliferation of naive CD4 T cells in MLR: Compound 11 500 nM; for IFNγ production in MLR: Compound 11 500 nM (FIG. 2B)
Procedure: FIG. 2A depicts a bar graph of percent proliferation normalized to no ATP. Naive CD4^+ T cells were cultured with allogeneic monocyte-derived dendritic cells at a ratio of 10:1 for 96 h in the presence of 300 µM ATP as a source of adenosine and the molecules Compound 2 (50 nM), Compound 11 (500 nM) or concentration-matched DMSO. Proliferation of T cells was assessed by CFSE dilution and normalized to the level observed in T cells activated in the absence of ATP.
FIG. 2B depicts two bar graphs, one showing TNF concentration (pg/mL), and the other showing IFNy (pg/mL). Experiment performed as described in FIG. 2A and supernatant sampled for analysis of cytokines by alphaLISA. **** = p < 0.0001; *** = p < 0.001; ** = p < 0.01 and * = p < 0.05; derived from one-way ANOVA with Tukey’s multiple comparisons test.
PBMCs were isolated from buffy coats via centrifugation of fresh whole blood over Lymphoprep using SepMate-50 tubes (both from […] Technologies) according to the manufacturer’s instructions. Naive CD4^+ T cells were isolated from the PBMCs using the Naive CD4^+ T cell Isolation Kit II, human (Miltenyi Biotec) according to the manufacturer’s instructions and cryopreserved in FBS with 10% DMSO until required. CD14^+ monocytes were also isolated from the PBMC samples using CD14 MicroBeads, human (MiltenyiBiotec) according to the manufacturer’s instructions and used on the day of isolation.
Monocytes were resuspended in RPMI (Lonza) with 10% FBS and cultured in a humidified incubator at 37° C. with 5% CO2 for 6 days in the presence of GM-CSF and IL-4 (R&D Systems), each at 50 ng/ml in 24 well plates. On day 3 of culture half of the medium was carefully removed and replaced with fresh medium containing 100 ng/ml of GM-CSF and IL-4.
On day 6 of culture monocyte-derived dendritic cells (MoDCs) were harvested and washed into X-VIVO15 medium containing 5% human male AB serum (Biowest) and 1 mM sodium pyruvate (Lonza). Naive CD4^+ T cells from a different donor were thawed and CFSE-labelled as described above and washed into the same medium as the MoDCs. Finally, 1 × 10^4 MoDCs were cultured with 1 × 10^5 naive CD4^+ T cells in the presence of ATP (Sigma-Aldrich), uridine or uracil in 96 round well bottom plates for 72 h in a humidified incubator at 37° C. with 5% CO2.
Analysis of proliferation of CD4 T cells via CSFE dilution was performed by flow cytometry using a BD LSR Fortessa with data analysis on FlowJo (BD Biosciences). Cytokines were analysed by alphaLISA (Perkin Elmer) according to the manufacturer’s instructions.

human ENT1 = target: T1, human ENT1 (Homo sapiens, UniProt Q99808); assay: ENT1 binding assay (competition with Sahenta-DY647 on JAR cells); parameters: JAR cells expressing ENT1 were bought from ATCC® (HTB-144TM); host or cells: JAR cells (human choriocarcinoma line; whole cells); details: competition with Sahenta-DY647 100 nM, 4° C.
T1 sequence (Q99808 1-456): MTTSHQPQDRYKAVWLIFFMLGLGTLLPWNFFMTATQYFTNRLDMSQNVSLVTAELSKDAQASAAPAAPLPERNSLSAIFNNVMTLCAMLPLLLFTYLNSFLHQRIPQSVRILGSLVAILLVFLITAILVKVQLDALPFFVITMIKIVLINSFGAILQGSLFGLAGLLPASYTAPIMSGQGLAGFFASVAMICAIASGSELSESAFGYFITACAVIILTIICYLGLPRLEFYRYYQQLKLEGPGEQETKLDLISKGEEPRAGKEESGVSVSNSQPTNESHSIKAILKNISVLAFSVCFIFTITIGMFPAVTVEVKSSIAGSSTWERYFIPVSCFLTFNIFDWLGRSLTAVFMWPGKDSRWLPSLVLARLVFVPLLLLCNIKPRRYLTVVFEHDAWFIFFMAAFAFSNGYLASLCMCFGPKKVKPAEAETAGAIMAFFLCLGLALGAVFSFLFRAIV
Procedure, shortened: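 Competition binding on intact JAR cells (50000 per well) in HBSS with 10 mM Hepes and 0.1% BSA. Cells pre-incubated with compound 30 min at 4 °C, then Sahenta-DY647 added at its IC90 (100 nM) for another 30 min at 4 °C; after washing, fluorescence read at Ex 630/Em 670 nm.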

Compound | Production of TNF in MLR ([1]; Compound 2 50 nM (FIG. 2B)) | Rescue of proliferation of naive CD4 T cells in MLR [1] | IFNγ production in MLR [1] | IC50 (human ENT1) [nM]
COc1cc(C(=O)O[C@H]2CCCOc3cc(cc(OC)c3OC)C(=O)OCCCN3CCCN(CC2)CC3)cc(OC)c1OC [Compound 2, (12S)-74,75-dimethoxy-6-oxo-5,8-dioxa-1(1,4)-diazepana-7(1,3)-benzenacyclotetradecaphane-12-yl 3,4,5-trimethoxybenzoate] | clear restoration with Compound 2, even beyond the control level | near complete rescue | significant and consistent increase | 1 to 20
COc1cc(C(=O)OC2CCCOc3cc(cc(OC)c3OC)C(=O)N(C)CCCN3CCCN(CC2)CC3)cc(OC)c1OC (stereo not shown) [Compound 11, 74,75-dimethoxy-5-methyl-6-oxo-8-oxa-5-aza-1(1,4)-diazepana-7(1,3)-benzenacyclotetradecaphane-12-yl 3,4,5-trimethoxybenzoate] | – | weaker restoration | smaller effect | 1 to 20
